Measurements reported in PubChem BioAssay (NCI).
Where “and” joins values, the source holds several entries; their conditions need not be identical. Equal entries are not always repeated.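 96-well plates; 48 h exposure; 5 concentrations. Endpoints by linear interpolation between flanking doses. Not reached: highest tested concentration assigned. GI50 is the concentration that inhibits growth by half. At the TGI there is no net growth.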

What was measured:
Assay in all cases: inhibition of tumour cell growth, NCI panel, 48 h
RPMI-8226 leukemia = test system: RPMI-8226 leukemia
MOLT-4 leukemia = test system: MOLT-4 leukemia
A498 renal = test system: A498 renal
COLO 205 colon = test system: COLO 205 colon
A549 NSCLC = test system: A549 NSCLC
NCI/ADR-RES ovarian = test system: NCI/ADR-RES ovarian
SF-295 CNS = test system: SF-295 CNS
T-47D breast = test system: T-47D breast
OVCAR-5 ovarian = test system: OVCAR-5 ovarian
NCI-H23 lung = test system: NCI-H23 lung

| SMILES | TGI (RPMI-8226 leukemia) | TGI (MOLT-4 leukemia) [µM] | TGI (A498 renal) [µM] | TGI (COLO 205 colon) | TGI (A549 NSCLC) [µM] | TGI (NCI/ADR-RES ovarian) | TGI (SF-295 CNS) | TGI (T-47D breast) | TGI (OVCAR-5 ovarian) | TGI (NCI-H23 lung) [µM] | GI50 (RPMI-8226 leukemia) [µM] | GI50 (A498 renal) [µM] | GI50 (COLO 205 colon) [µM] | GI50 (T-47D breast) [µM] | GI50 (NCI/ADR-RES ovarian) [µM] | GI50 (OVCAR-5 ovarian) [µM] | GI50 (NCI-H23 lung) [µM] | GI50 (SF-295 CNS) [µM] | GI50 (MOLT-4 leukemia) [µM] | GI50 (A549 NSCLC) [µM] |
| --- | --- | --- | --- | --- | --- | --- | --- | --- | --- | --- | --- | --- | --- | --- | --- | --- | --- | --- | --- | --- |
| O=C(c1ccccc1)c1ccc2nc(-c3c(Cl)c(Cl)c(Cl)c(Cl)c3-c3nnc(-c4ccccc4)o3)[nH]c2c1 | > 100 µM | > 100 | 78.4 | > 100 µM | > 100 | > 100 µM | 73.9 µM | > 100 µM | > 100 µM | > 100 |  |  |  |  |  |  |  |  |  |  |
| COc1ccc(C#Cn2nnc3ccccc32)cc1 | 85.1 µM | > 100 | > 100 | > 100 µM | > 100 | > 100 µM | > 100 µM |  | > 100 µM | > 100 |  |  |  |  |  |  |  |  |  |  |
| Cc1c(CNc2ccc(C(=O)NC(CCCNC(=O)c3ccccc3C(=O)O)C(=O)O)cc2)cnc2nc(N)nc(N)c12 (stereo not given) | > 100 µM |  | > 100 | 4.74 µM | > 100 | > 100 µM |  |  | > 100 µM |  | 0.0216 | > 100 | 1.72 | > 100 |  |  |  |  |  |  |
| Cc1cccc2c(N)c3cccc(C(=O)NCC[N+](C)(C)Cc4ccc([N+](=O)[O-])s4)c3nc12 | 34.1 µM | 9.36 | 23.6 | 21.4 µM | 17.5 | > 100 µM | > 100 µM | > 67.6 µM | > 61.2 µM | 21.9 |  |  |  |  |  |  |  |  |  |  |
| Clc1sc(Cl)c2c1[C@@H](Cl)C[C@@H]2Cl |  | > 100 | > 100 | > 100 µM | > 100 | > 100 µM | > 100 µM | > 100 µM | > 100 µM | > 100 |  |  |  |  |  |  |  |  |  |  |
| CC(=O)n1cc(C2CC23N=C(c2ccccc2)OC3=O)c2ccccc21 (stereo not given) | 26.2 µM |  | 56.7 | 44.8 µM | 59.9 | > 56 µM | > 100 µM | > 100 µM | 49.7 µM | 42 |  |  |  |  |  |  |  |  |  |  |
| CCC1(O)CC(OC2CC(N(C)C)C(OC3CC(O)C(OC4OC(C)C(=O)C=C4N)C(C)O3)C(C)O2)c2c(cc3c(c2O)C(=O)c2c(O)cccc2C3=O)C1C(=O)OC (stereo not given) | 0.154 µM and 0.0597 µM |  |  | 0.338 µM and 0.766 µM | 1.63 | 5.5 µM and 27 µM | 1.53 µM and 1.13 µM | 0.657 µM and 1.79 µM | 1.37 µM and 2.04 µM | 2.95 |  |  |  | 0.0221 | 1.86 | 0.0152 | 0.0144 |  |  |  |
| COc1cc2cc(C(=O)N3CC(COS(C)(=O)=O)c4ccc(NC(=O)OCc5ccccc5)cc43)[nH]c2c(OC)c1OC (stereo not given) |  | > 100 | > 100 | > 100 µM | > 100 | > 100 µM | > 100 µM | > 100 µM | > 100 µM | > 100 |  |  |  |  |  |  |  |  |  |  |
| C(/C=N/NC1=NCCCCN1)=N\NC1=NCCCCN1 |  | > 100 |  | > 100 µM | > 100 | > 100 µM | > 100 µM | > 100 µM | > 100 µM | > 100 |  |  |  |  |  |  |  |  |  |  |
| O=c1c2cc(C(F)(F)F)ccc2sc2c(NCCCNCCO)nc3ccccc3c12 |  |  | 3.06 |  |  |  | 3.3 µM |  | 3.04 µM | 3.02 |  | 1.61 |  |  |  | 1.63 | 1.58 | 1.81 |  |  |
| Cc1cc(-n2nnc(C(=O)O)c2-c2ccccc2)c2ccc(Cl)cc2n1 |  | > 100 | > 100 | > 100 µM | > 100 | > 100 µM | > 100 µM | > 100 µM | > 100 µM | > 100 |  |  |  |  |  |  |  |  |  |  |
| CN1CCN(Cc2c[nH]c3c2C(=O)c2c(c(O)c4ccccc4c2O)C3=O)CC1 | 26.5 µM | > 100 |  | 70.7 µM | 25.4 | 25.5 µM | 35.4 µM |  | 33.6 µM | 26.9 | 3 |  | 31.7 |  | 11.7 | 18.1 | 12.9 | 15 | 4.02 | 10.7 |
| CNc1nnc(CCCCCCCCc2nnc(NC)o2)o1 |  | > 100 | > 100 | > 100 µM | > 100 | > 100 µM | > 100 µM |  | > 100 µM | > 100 |  |  |  |  |  |  |  |  |  |  |
| ClC(Cl)(Cl)C1CCOC1n1nnc2ccccc21 (stereo not given) |  | 73.8 | > 100 | > 100 µM | > 100 | > 100 µM | > 100 µM | > 100 µM | > 100 µM | > 100 |  |  |  |  |  |  |  |  |  |  |
| O=C(/C(=C(/O)c1ccccc1)c1nc2ccccc2sc1=O)c1ccccc1 | 41.8 µM |  | > 100 | > 100 µM | > 100 | 74.4 µM | 74.9 µM | > 100 µM | > 100 µM | 68 |  |  |  |  |  |  |  |  |  |  |
| C#CC[C@@]12CC(=O)C[C@@H]1CCC1(C2)OCCO1 (tested in a mixture with another compound) | > 100 µM | > 100 | > 100 | > 100 µM | > 100 | > 100 µM | > 100 µM |  | > 100 µM | > 100 |  |  |  |  |  |  |  |  |  |  |
| O=C1c2cc(Cc3ccccc3)c(=O)c(Cc3ccccc3)cc2C(=O)c2cc(Cc3ccccc3)c(=O)c(Cc3ccccc3)cc21 | > 100 µM | > 100 | > 100 | > 100 µM | > 100 | > 100 µM | > 100 µM |  | > 100 µM | > 100 |  |  |  |  |  |  |  |  |  |  |
| CC1CC[C@@]2(OC1)O[C@H]1[C@H](O)[C@H]3[C@@H]4CC[C@H]5C[C@@H](OC6OC(CO)C(OC7OC(CO)C(O)C(OC8OCC(O)C(O)C8O)C7OC7OC(CO)C(O)C(O)C7OC7OC(CO)C(O)C(O)C7O)C(O)C6O)[C@H](O)C[C@]5(C)[C@H]4CC[C@]3(C)[C@H]1[C@@H]2C (stereo not given in full) | 5.14 µM | 1.19 | > 10 | > 10 µM | > 10 | > 10 µM |  | > 10 µM | > 10 µM | > 10 |  |  |  |  |  |  |  |  |  |  |
| O=C(CCN1CCOCC1)/C(=C/c1ccccc1)c1ccccc1 | 8.05 µM | 5.81 | 23.3 | 14.3 µM | 36.6 | 17.5 µM | 25.7 µM |  | 30.4 µM | 14.1 |  |  |  |  |  |  |  |  |  |  |
| Cc1cc(C)c2c(c1)CC1(Cc3cc(C)c(C)cc3C1=O)C2=O (stereo not given) | > 100 µM | > 100 | > 100 | > 100 µM | > 100 | > 100 µM | > 100 µM | > 100 µM | > 100 µM |  |  |  |  |  |  |  |  |  |  |  |
